Experimental data as given in PubChem BioAssay AID1919013 (Molecular Pharmacology Branch, DTP, NCI, 2023).

System: LG0703-F498-PDC complex spheroid growth
Test: Anticancer human tumor LG0703-F498-PDC patient-derived lung adenocarcinoma cell line growth inhibition [AhR]
Conditions: for IC50: curve of first compound; for viability, T/C: stronger effect = lower value
Method in brief: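 Complex tumor spheroids co-cultured with HUVEC and human MSC stroma; AhR antagonists tested in combination with standard-of-care and investigational agents. Top concentration at or near clinical Cmax (else 10 microM), half-log dilutions; growth expressed as percent test/control.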
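Also: luminescence taken as a proxy for viable cell amount.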
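For viability, T/C in this document: percent of DMSO vehicle control where 100% means growth equal to vehicle.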

CC(C)CC(NC(=O)C(Cc1ccccc1)NC(=O)c1cnccn1)B(O)O (stereo not given) + CC(CO)NC(=O)c1cc(-c2ccc(Cl)cc2)nn(-c2cnn(C)c2)c1=O
IC50 (second compound 0.1 µM): 2.38 nM | IC50 (second compound 0.316 µM): 2.52 nM | IC50 (second compound 1 µM): 2.12 nM | IC50 (second compound 3.16 µM): 2.09 nM | IC50 (second compound 10 µM): 1.88 nM | viability, T/C (second compound 0.1 µM, first compound 0.000949 µM): 76.8% | viability, T/C (second compound 0.1 µM, first compound 0.003 µM): 43.2% | viability, T/C (second compound 0.1 µM, first compound 0.00949 µM): 1.95% | viability, T/C (second compound 0.1 µM, first compound 0.03 µM): 0.49% | viability, T/C (second compound 0.1 µM, first compound 0.0949 µM): 0.12% | viability, T/C (second compound 0.1 µM, first compound 0.3 µM): 0.2% | viability, T/C (second compound 0.316 µM, first compound 0.000949 µM): 80% | viability, T/C (second compound 0.316 µM, first compound 0.003 µM): 44.7% | viability, T/C (second compound 0.316 µM, first compound 0.00949 µM): 3.04% | viability, T/C (second compound 0.316 µM, first compound 0.03 µM): 0.34% | viability, T/C (second compound 0.316 µM, first compound 0.0949 µM): 0.17% | viability, T/C (second compound 0.316 µM, first compound 0.3 µM): 0.17% | viability, T/C (second compound 1 µM, first compound 0.000949 µM): 75.9% | viability, T/C (second compound 1 µM, first compound 0.003 µM): 38.8% | viability, T/C (second compound 1 µM, first compound 0.00949 µM): 2.08% | viability, T/C (second compound 1 µM, first compound 0.03 µM): 0.36% | viability, T/C (second compound 1 µM, first compound 0.0949 µM): 1.04% | viability, T/C (second compound 1 µM, first compound 0.3 µM): 0.16% | viability, T/C (second compound 3.16 µM, first compound 0.000949 µM): 78% | viability, T/C (second compound 3.16 µM, first compound 0.003 µM): 37.3% | viability, T/C (second compound 3.16 µM, first compound 0.00949 µM): 1.6% | viability, T/C (second compound 3.16 µM, first compound 0.03 µM): 0.13% | viability, T/C (second compound 3.16 µM, first compound 0.0949 µM): 0.63% | viability, T/C (second compound 3.16 µM, first compound 0.3 µM): 1.52% | viability, T/C (second compound 10 µM, first compound 0.000949 µM): 71.2% | viability, T/C (second compound 10 µM, first compound 0.003 µM): 35.5% | viability, T/C (second compound 10 µM, first compound 0.00949 µM): 1.37% | viability, T/C (second compound 10 µM, first compound 0.03 µM): 0.23% | viability, T/C (second compound 10 µM, first compound 0.0949 µM): 0.25% | viability, T/C (second compound 10 µM, first compound 0.3 µM): 0.21%

COc1ccc([C@@H](O)c2cc(-c3ncnc4cc(N5CCOCC5)ccc34)c(F)cc2Cl)nn1 + Cc1cncc(-c2nc(NCCc3c[nH]c4ccccc34)c3ncn(C(C)C)c3n2)c1
IC50 (second compound 0.1 µM): 5420 nM | IC50 (second compound 0.316 µM): 4810 nM | IC50 (second compound 1 µM): 4590 nM | IC50 (second compound 3.16 µM): < 31.6 nM | IC50 (second compound 10 µM): < 31.6 nM | viability, T/C (second compound 0.1 µM, first compound 0.0316 µM): 87.8% | viability, T/C (second compound 0.1 µM, first compound 0.1 µM): 107% | viability, T/C (second compound 0.1 µM, first compound 0.316 µM): 98.1% | viability, T/C (second compound 0.1 µM, first compound 1 µM): 82.2% | viability, T/C (second compound 0.1 µM, first compound 3.16 µM): 65.3% | viability, T/C (second compound 0.1 µM, first compound 10 µM): 34% | viability, T/C (second compound 0.316 µM, first compound 0.0316 µM): 105% | viability, T/C (second compound 0.316 µM, first compound 0.1 µM): 97% | viability, T/C (second compound 0.316 µM, first compound 0.316 µM): 97.8% | viability, T/C (second compound 0.316 µM, first compound 1 µM): 82% | viability, T/C (second compound 0.316 µM, first compound 3.16 µM): 63.5% | viability, T/C (second compound 0.316 µM, first compound 10 µM): 27.5% | viability, T/C (second compound 1 µM, first compound 0.0316 µM): 95.9% | viability, T/C (second compound 1 µM, first compound 0.1 µM): 104% | viability, T/C (second compound 1 µM, first compound 0.316 µM): 103% | viability, T/C (second compound 1 µM, first compound 1 µM): 92.4% | viability, T/C (second compound 1 µM, first compound 3.16 µM): 60.4% | viability, T/C (second compound 1 µM, first compound 10 µM): 28.7% | viability, T/C (second compound 3.16 µM, first compound 0.0316 µM): 36.7% | viability, T/C (second compound 3.16 µM, first compound 0.1 µM): 42.4% | viability, T/C (second compound 3.16 µM, first compound 0.316 µM): 34% | viability, T/C (second compound 3.16 µM, first compound 1 µM): 27.4% | viability, T/C (second compound 3.16 µM, first compound 3.16 µM): 17.8% | viability, T/C (second compound 3.16 µM, first compound 10 µM): 13% | viability, T/C (second compound 10 µM, first compound 0.0316 µM): 1.26% | viability, T/C (second compound 10 µM, first compound 0.1 µM): 1% | viability, T/C (second compound 10 µM, first compound 0.316 µM): 1.42% | viability, T/C (second compound 10 µM, first compound 1 µM): 1.17% | viability, T/C (second compound 10 µM, first compound 3.16 µM): 0.52% | viability, T/C (second compound 10 µM, first compound 10 µM): 1.67%
